Test results as given in publication PMC10353061 (ACS Pharmacology & Translational Science, 2023).

Legend:
[1] = biological target: T1, β-catenin Armadillo repeats domain (Homo sapiens, UniProt P35222); assay: Surface plasmon resonance binding of 9 to immobilized β-catenin Armadillo repeats domain; conditions: SPR, 25 °C, analyte 1.95-62.5 nM, 1:1 model; read-out: ka
T1 construct: GST (N, cleaved yes); made in house; host or cells: Escherichia coli BL21(DE3)
T1 sequence (P35222 133-664): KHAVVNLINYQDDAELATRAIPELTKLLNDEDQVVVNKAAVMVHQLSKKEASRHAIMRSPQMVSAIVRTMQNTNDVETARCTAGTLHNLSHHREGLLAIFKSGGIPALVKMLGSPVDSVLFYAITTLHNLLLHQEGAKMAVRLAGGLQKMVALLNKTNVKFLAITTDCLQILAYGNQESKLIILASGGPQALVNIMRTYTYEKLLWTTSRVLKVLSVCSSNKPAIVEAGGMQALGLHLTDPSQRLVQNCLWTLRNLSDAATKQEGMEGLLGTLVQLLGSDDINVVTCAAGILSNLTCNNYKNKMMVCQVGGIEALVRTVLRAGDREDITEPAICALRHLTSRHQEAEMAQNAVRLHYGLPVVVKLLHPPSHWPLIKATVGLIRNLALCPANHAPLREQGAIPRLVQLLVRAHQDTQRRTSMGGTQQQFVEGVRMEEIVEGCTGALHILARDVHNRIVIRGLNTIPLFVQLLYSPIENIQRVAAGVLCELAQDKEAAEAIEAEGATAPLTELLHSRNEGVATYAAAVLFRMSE
Method: To collect detailed kinetic data of the binding measured as the rate constants of the association (ka) and dissociation (kd) of the complex, a concentration series of the analyte ranging from 1.95 up to 62.5 nM was injected over the covalently immobilized Armadillo repeats domain onto the sensor chip surface and the interaction between the analyte and the ligand was detected as a measure of the change in mass concentration upon the surface, expressed in resonance units (RUs) and compared to the baseline.
Full kinetic analysis of the binding interaction between 9 when binding to the Armadillo domain is shown in Figure 4, with the calculated binding parameters listed in the bottom table. As evidenced by the sensorgram obtained at different analyte concentrations, the dissociation rate constant of 9 is very slow, thereby resulting in a low nanomolar equilibrium affinity constant (KD) of the binding calculated as the ratio of kd/ka (Figure 4).
Figure 4 SPR kinetic analysis. […]
The analyte 9 was dialyzed in the running buffer (1% final DMSO concentration) and injected at different concentrations for 120 s onto the sensor chip at a constant flow rate of 50 μL/min. […] The equilibrium dissociation constant (KD) was determined by the ratio Koff/Kon. […]

[2] = system: β-catenin; assay: Wnt reporter assay (TOP/FOP luciferase) in LiCl-treated HCT116 cells; assay type: cell-based; conditions: Homo sapiens, HCT-116, read-out: IC50, inhibition of β-catenin (luciferase reporter), LiCl 50 mM, 24 h
Method: Compounds 9 and 10 were assayed at increasing 10 and 100 nM and 1 μM concentrations in HCT116 cells transfected with luciferase-based vectors and treated with LiCl (50 mM). TOP TK is a well-established Wnt reporter vector containing eight sequences of Tcf/Lef binding site upstream of the timidine kinase (TK) minimal promoter, driving the expression of firefly luciferase.
Figure 6 HCT116 cells were transfected with luciferase-based vectors and treated with LiCl (50 mM) together with increasing concentrations of compound 9 or 10. Cells were harvested 24 h post-treatment and assayed for luciferase activity. Inhibitions were calculated as the luciferase/renilla ratio of the treated samples vs. the luciferase/renilla ratio of the untreated (control) samples. Data are represented as the mean ± SD of three independent experiments, each performed in triplicate. **p < 0.01, ***p < 0.001, n.s = not significant, as determined by analysis of variance (ANOVA).
Luciferase assays were performed as previously described.[58],[59] Briefly, HCT116 cells were transfected with Topflash reporter (M50 Super 8x TOPFlash, containing 8 repeats of TCF/LEF binding sites) or Fopflash reporter (M51 Super 8x FOPFlash, containing the mutated TCF/LEF binding sites) plasmids using the Dreamfect Gold Transfection Reagent (#DG80500, OZ Biosciences). […]

O=S(=O)(Nc1ccc(-c2ccccn2)cc1)c1ccc(Br)cc1 [Compound 9, 4-Bromo-N-(4-(pyridin-2-yl)phenyl)benzenesulfonamide]
kon [1]: 293000 M⁻¹ s⁻¹ | IC50 [2]: > 1 µM
